# Literature values in US20170108488A1, “Array and Method of Use” (Quick Biology, Inc., priority 2015, published 2017).
# Key:
# [1] = tested on: SB-2 tumor xenograft; conditions: in combination with the MEK inhibitor GSK1120212; NRAS mutant melanoma
# [2] = target: BRAF (Homo sapiens, UniProt P15056, V600E); conditions: melanomas with BRAF activating mutations
# Sequence of BRAF (P15056 whole entry V600E): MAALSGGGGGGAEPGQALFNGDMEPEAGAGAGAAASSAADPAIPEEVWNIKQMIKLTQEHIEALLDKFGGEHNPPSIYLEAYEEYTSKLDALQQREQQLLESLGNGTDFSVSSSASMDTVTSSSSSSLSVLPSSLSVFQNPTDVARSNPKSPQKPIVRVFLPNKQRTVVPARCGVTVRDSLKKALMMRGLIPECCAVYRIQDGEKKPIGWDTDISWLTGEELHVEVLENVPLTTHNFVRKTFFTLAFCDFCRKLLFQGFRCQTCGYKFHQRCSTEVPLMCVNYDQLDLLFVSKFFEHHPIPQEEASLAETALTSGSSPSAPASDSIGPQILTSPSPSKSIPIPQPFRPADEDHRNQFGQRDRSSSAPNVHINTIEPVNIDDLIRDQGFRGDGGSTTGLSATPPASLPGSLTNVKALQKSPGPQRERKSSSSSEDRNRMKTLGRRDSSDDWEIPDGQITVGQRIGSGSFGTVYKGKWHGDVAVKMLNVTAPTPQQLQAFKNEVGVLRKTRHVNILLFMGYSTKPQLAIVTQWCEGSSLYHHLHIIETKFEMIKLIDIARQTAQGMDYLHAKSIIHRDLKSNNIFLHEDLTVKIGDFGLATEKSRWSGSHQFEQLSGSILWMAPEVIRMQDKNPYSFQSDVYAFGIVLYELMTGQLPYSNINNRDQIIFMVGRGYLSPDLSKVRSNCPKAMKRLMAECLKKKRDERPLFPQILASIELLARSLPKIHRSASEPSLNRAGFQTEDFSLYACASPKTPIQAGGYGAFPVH
success rate in melanomas [2],SMILES,tumor response in SB-2 tumor xenograft [1]
–,CC(=O)c1c(C)c2cnc(Nc3ccc(N4CCNCC4)cn3)nc2n(C2CCCC2)c1=O [PD-0332991],tumor regression was achieved
high success rate,CCCS(=O)(=O)Nc1ccc(F)c(C(=O)c2c[nH]c3ncc(-c4ccc(Cl)cc4)cc23)c1F [PLX4032],–
